Where two headings read alike, the source gives them in different places.
Legend:
Type in all cases: in vivo
[1] = test system: boll weevil (Anthonomus grandis); assay: B.2 Boll weevil, 96-well microtiter plate diet test with eggs; conditions: for mortality at 2500 ppm: 120 h, egg and larval mortality after 5 days, read-out: mortality in comparison with untreated controls; for mortality at 9.9 ppm: comparative experiment C.9
Method: (§1) If not otherwise specified, the test solutions were prepared as follow: The active compound was dissolved at the desired concentration in a mixture of 1:1 (vol:vol) distilled water:acetone. The test solution was prepared on the day of use.
B.2 Boll Weevil (Anthonomus grandis)
For evaluating control of boll weevil (Anthonomus grandis) the test unit consisted of 96-well-microtiter plates containing an insect diet and 5-10 A. grandis eggs.
The compounds were formulated using a solution containing 75% v/v water and 25% v/v DMSO. Different concentrations of formulated compounds were sprayed onto the insect diet at 5 μl, using a custom-built micro atomizer, at two replications.
After application, microtiter plates were incubated at about 25±1° C. and about 75±5% relative humidity for 5 days. Egg and larval mortality was then visually assessed.

[2] = test system: Southern armyworm (Spodoptera eridania), 2nd instar larvae; assay: B.3 Southern armyworm, 2nd instar larvae, foliar spray on lima bean plants; conditions: 96 h, 4 days after treatment, read-out: mortality in comparison with untreated controls
Method: B.3 Southern Armyworm (Spodoptera eridania), 2nd Instar Larvae
The active compounds were formulated by a Tecan liquid handler in 100% cyclohexanone as a 10,000-ppm solution supplied in tubes. The 10,000-ppm solution was serially diluted in 100% cyclohexanone to make interim solutions. These served as stock solutions for which final dilutions were made by the Tecan in 50% acetone:50% water (v/v) into 10 or 20 ml glass vials. A non-ionic surfactant (Kinetic@) was included in the solution at a volume of 0.01% (v/v). The vials were then inserted into an automated electrostatic sprayer equipped with an atomizing nozzle for application to plants/insects. Lima bean plants (variety Sieva) were grown 2 plants to a pot and selected for treatment at the 1st true leaf stage. Test solutions were sprayed onto the foliage by an auto-mated electrostatic plant sprayer equipped with an atomizing spray nozzle. The plants were dried in the sprayer fume hood and then removed from the sprayer. Each pot was placed into perforated plastic bags with a zip closure. Ten to 11 armyworm larvae were placed into the bag and the bags zipped closed. Test plants were maintained in a growth room at about 25° C. and about 20-40% relative humidity for 4 days, avoiding direct exposure to fluorescent light (14:10 light:dark photoperiod) to prevent trapping of heat inside the bags. Mortality and reduced feeding were assessed 4 days after treatment, compared to untreated control plants.

[3] = test system: yellow fever mosquito (Aedes aegypti); assay: whole plant or invertebrate; conditions: for mortality at 2500 ppm: 48 h, larval mortality after 2 days, read-out: mortality in comparison with untreated controls
Method: as §1
B.5 Yellow Fever Mosquito (Aedes aegypti)
For evaluating control of yellow fever mosquito (Aedes aegypti) the test unit consisted of 96-well-microtiter plates containing 200 μl of tap water per well and 5-15 freshly hatched A. aegypti larvae.
The active compounds were formulated using a solution containing 75% (v/v) water and 25% (v/v) DMSO. Different concentrations of formulated compounds or mixtures were sprayed onto the insect diet at 2.5 μl, using a custom-built micro atomizer, at two replications.
After application, microtiter plates were incubated at 281° C., 80±5% RH for 2 days. Larval mortality was then visually assessed.

[4] = test system: green peach aphid (Myzus persicae); assay: B.6 Green peach aphid, systemic test with artificial diet under membrane
Method: as §1
B.6 Green Peach Aphid (Myzus persicae)
For evaluating control of green peach aphid (Myzus persicae) through systemic means, the test unit consisted of 96-well-microtiter plates containing liquid artificial diet under an artificial membrane.
The compounds were formulated using a solution containing 75% v/v water and 25% v/v DMSO. Different concentrations of formulated compounds were pipetted into the aphid diet, using a custom built pipetter, at two replications.
After application, 5-8 adult aphids were placed on the artificial membrane inside the microtiter plate wells. The aphids were then allowed to suck on the treated aphid diet and incubated at about 23±1° C. and about 50±5% relative humidity for 3 days. Aphid mortality and fecundity was then visually assessed.

[5] = test system: tobacco budworm (Heliothis virescens); assay: B.1 Tobacco budworm, 96-well microtiter plate diet test with eggs; conditions: for mortality at 2500 ppm: 120 h, egg and larval mortality after 5 days, read-out: mortality in comparison with untreated controls; for mortality at 100 ppm: comparative experiment C.6; for mortality at 274 ppm: comparative experiment C.9
Method: as §1
B.1 Tobacco Budworm (Heliothis virescens)
For evaluating control of tobacco budworm (Heliothis virescens) the test unit consisted of 96-well-microtiter plates containing an insect diet and 15-25 H. virescens eggs.
The compounds were formulated using a solution containing 75% v/v water and 25% v/v DMSO. Different concentrations of formulated compounds were sprayed onto the insect diet at 10 μl, using a custom-built micro atomizer, at two replications.
After application, microtiter plates were incubated at about 28±1° C. and about 80±5% relative humidity for 5 days. Egg and larval mortality was then visually assessed.

[6] = 72 h, aphid mortality after 3 days, read-out: mortality in comparison with untreated controls
[7] = Anthonomus grandis, 90 ppm, comparative experiment C.8
[8] = comparative experiment C.8, read-out: B.6, 2500 ppm (mortality)
[9] = Anthonomus grandis, 90 ppm, comparative experiment C.7

Compound | mortality at 2500 ppm ([1]; Anthonomus grandis) [%] | mortality at 2500 ppm [3] [%] | mortality at 2500 ppm [4, 6] [%] | mortality at 2500 ppm [5] [%] | further results
CC(NC(=O)c1cc(C(F)(F)F)cc(C(F)(F)F)c1)c1nccnc1-n1ncc(-c2cccnc2)n1 (stereo not shown) [I-8] | ≥ 75 | ≥ 75 | ≥ 75 | ≥ 75 | mortality at 300 ppm [2]: ≥ 75%; mortality at 30 ppm ([4]; comparative experiment C.2): 100%
CSc1cnn(-c2c(Cl)ccnc2C(C)NC(=O)c2cc(C(F)(F)F)cc(C(F)(F)F)c2)c1 (stereo not shown) [I-26, N-[1-[4-chloro-3-(4-methylsulfanylpyrazol-1-yl)-2-pyridyl]ethyl]-3,5-bis(trifluoromethyl)benzamide] | ≥ 75 | ≥ 75 | – | ≥ 75 | mortality at 300 ppm [2]: ≥ 75%
CC(NC(=O)c1cc(C(F)(F)F)cc(C(F)(F)F)c1)c1nccc(Cl)c1-n1cc([S+](C)[O-])cn1 (stereo not shown) [I-28, N-[1-[4-chloro-3-(4-methylsulfinylpyrazol-1-yl)-2-pyridyl]ethyl]-3,5-bis(trifluoromethyl)benzamide] | ≥ 75 | – | ≥ 75 | – | mortality at 300 ppm [2]: ≥ 75%
CC(NC(=O)c1cc(C(F)(F)F)cc(C(F)(F)F)c1)c1nccnc1-n1ncc(-c2ccn(C)n2)n1 (stereo not shown) [I-29, N-[1-[3-[4-(1-methylpyrazol-3-yl)triazol-2-yl]pyrazin-2-yl]ethyl]-3,5-bis(trifluoromethyl)benzamide] | ≥ 75 | ≥ 75 | ≥ 75 | ≥ 75 | mortality at 90 ppm [1, 7]: 100%; mortality at 2500 ppm [4, 8]: 100%
CC(C)Sc1cnn(-c2nccnc2C(C)NC(=O)c2cc(C(F)(F)F)cc(C(F)(F)F)c2)c1 (stereo not shown) [I-48, N-[1-[3-(4-isopropylsulfanylpyrazol-1-yl)pyrazin-2-yl]ethyl]-3,5-bis(trifluoromethyl)benzamide] | ≥ 75 | – | – | ≥ 75 | mortality at 90 ppm [1, 9]: 100%; mortality at 300 ppm [2]: ≥ 75%; mortality at 90 ppm ([5]; comparative experiment C.7): 100%
CC(NC(=O)c1cc(C(F)(F)F)cc(C(F)(F)F)c1)c1nccc(F)c1-n1cc(S(C)(=O)=O)cn1 (stereo not shown) [I-53, N-[1-[4-fluoro-3-(4-methylsulfonylpyrazol-1-yl)-2-pyridyl]ethyl]-3,5-bis(trifluoromethyl)benzamide] | ≥ 75 | ≥ 75 | – | ≥ 75 | –
CC(NC(=O)c1cc(C(F)(F)F)cc(C(F)(F)F)c1)c1nccnc1-n1cc(S(=O)(=O)C(F)(F)F)cn1 (stereo not shown) [I-55, 3,5-bis(trifluoromethyl)-N-[1-[3-[4-(trifluoromethylsulfonyl)pyrazol-1-yl]pyrazin-2-yl]ethyl]benzamide] | ≥ 75 | ≥ 75 | – | ≥ 75 | mortality at 90 ppm ([1]; Anthonomus grandis, 90 ppm, comparative experiment C.6): 100%; mortality at 100 ppm [5]: 100%
CC[S+]([O-])c1cnn(-c2nccnc2C(C)NC(=O)c2cc(C(F)(F)F)cc(C(F)(F)F)c2)c1 (stereo not shown) [I-58] | ≥ 75 | ≥ 75 | ≥ 75 | ≥ 75 | mortality at 90 ppm [1, 9]: 100%; mortality at 90 ppm ([5]; comparative experiment C.7): 100%
CC(NC(=O)c1cc(C(F)(F)F)cc(C(F)(F)F)c1)c1nccnc1-n1cc(SC(F)(F)F)cn1 (stereo not shown) [I-60, 3,5-bis(trifluoromethyl)-N-[1-[3-[4-(trifluoromethyl-sulfanyl)pyrazol-1-yl]pyrazin-2-yl]ethyl]benzamide] | ≥ 75 | ≥ 75 | – | ≥ 75 | mortality at 300 ppm [2]: ≥ 75%
CC(NC(=O)c1cc(C(F)(F)F)cc(C(F)(F)F)c1)c1nccnc1-n1cc(S(=O)(=O)C2CC2)cn1 (stereo not shown) [I-65, N-[1-[3-(4-cyclopropylsulfonylpyrazol-1-yl)pyrazin-2-yl]ethyl]-3,5-bis(trifluoromethyl)benzamide] | ≥ 75 | ≥ 75 | ≥ 75 | ≥ 75 | –
CC(NC(=O)c1cc(C(F)(F)F)cc(C(F)(F)F)c1)c1nccnc1-n1cc(S(=O)(=O)C(C)C)cn1 (stereo not shown) [I-67, N-[1-[3-(4-isopropylsulfonylpyrazol-1-yl)pyrazin-2-yl]ethyl]-3,5-bis(tri-fluoromethyl)benzamide] | ≥ 75 | ≥ 75 | ≥ 75 | ≥ 75 | –
CC(NC(=O)c1cc(C(F)(F)F)cc(C(F)(F)F)c1)c1nccnc1-n1cc([S+]([O-])C(C)C)cn1 (stereo not shown) [I-69, N-[1-[3-(4-isopropylsulfinylpyrazol-1-yl)pyrazin-2-yl]ethyl]-3,5-bis(trifluoromethyl)benzamide] | ≥ 75 | ≥ 75 | ≥ 75 | ≥ 75 | –
CC(NC(=O)c1cc(Cl)cc(S(C)(=O)=O)c1)c1nccnc1-n1ncc(-c2ccccn2)n1 (stereo not shown) [I-73] | ≥ 75 | ≥ 75 | ≥ 75 | ≥ 75 | mortality at 9.9 ppm ([1]; Anthonomus grandis): 100%; mortality at 274 ppm [5]: 100%
Cc1cnn(-c2nccnc2C(C)NC(=O)c2cc(C(F)(F)F)cc(C(F)(F)F)c2)n1 (stereo not shown) [WO2021/037614 P1, reference compound] | – | – | – | – | mortality at 30 ppm ([4]; comparative experiment C.1): 25%; mortality at 90 ppm ([5]; comparative experiment C.1): 25%
Cc1cn(-c2nccnc2C(C)NC(=O)c2cc(C(F)(F)F)cc(C(F)(F)F)c2)nn1 (stereo not shown) [WO2021/037614 P41, reference compound] | – | – | – | – | mortality at 30 ppm ([1]; Anthonomus grandis, 30 ppm, comparative experiment C.3): 0%; mortality at 90 ppm ([4]; 90 ppm, comparative experiment C.3): 0%
CC(NC(=O)c1cc(C(F)(F)F)cc(C(F)(F)F)c1)c1nccnc1-n1cc(C(F)(F)F)cn1 (stereo not shown) [WO2021/069575 I-92, reference compound] | – | – | – | – | B.2, 90 ppm (mortality) ([1]; 90 ppm, comparative experiment C.6): 0%; mortality at 90 ppm ([1]; Anthonomus grandis, 90 ppm, comparative experiment C.4): 0%; mortality at 90 ppm ([3]; 90 ppm, comparative experiment C.4, read-out: B.5, 90 ppm (mortality)): 0%; mortality at 30 ppm ([4]; comparative experiment C.4): 0%; mortality at 100 ppm [5]: 50%
CC(NC(=O)c1cc(C(F)(F)F)cc(C(F)(F)F)c1)c1nccnc1-n1cc(Cl)cn1 (stereo not shown) [WO2021/069575 I-96, reference compound] | – | – | – | – | mortality at 90 ppm ([1]; Anthonomus grandis, 90 ppm, comparative experiment C.5): 50%; mortality at 80 ppm ([3]; 80 ppm, comparative experiment C.5, read-out: B.5, 80 ppm (mortality)): 0%; mortality at 2500 ppm ([4]; comparative experiment C.5, read-out: B.6, 2500 ppm (mortality)): 0%
CC(NC(=O)c1cc(Cl)cc(S(C)(=O)=O)c1)c1nccnc1-n1nccn1 (stereo not shown) [WO2021/259997 I-1, reference compound] | – | – | – | – | mortality at 9.9 ppm ([1]; Anthonomus grandis): 0%; mortality at 274 ppm [5]: 0%
CC(NC(=O)c1cc(C(F)(F)F)cc(C(F)(F)F)c1)c1nccnc1-c1cn(-c2ccn(C)n2)nn1 (stereo not shown) [WO2021/259997 I-12, reference compound] | – | – | – | – | mortality at 90 ppm [1, 7]: 0%; mortality at 2500 ppm [4, 8]: 0%

— patent US20260206754A1, “HETEROARYL COMPOUNDS FOR THE CONTROL OF INVERTEBRATE PESTS” (priority 2022, published 2026)
